Test results as given in patent US20160122307A1, “PERHYDROQUINOXALINE DERIVATIVES” (DR. AUGUST WOLFF GMBH & CO. KG ARZNEIMITTEL, priority 2013, published 2016).
Read-outs that look alike come from different tables or passages of the source.

How the values were obtained:
[1] = molecular target: T1, Human opiate κ receptors (Homo sapiens, UniProt P41145); experiment: κ opioid receptor functional assay, [35S]GTPγS binding (assay C); assay type: biochemical; conditions: for activation at 1 µM: 0.5 h, read-out: % activation functional assay at 1 μM
T1 sequence (P41145 whole entry): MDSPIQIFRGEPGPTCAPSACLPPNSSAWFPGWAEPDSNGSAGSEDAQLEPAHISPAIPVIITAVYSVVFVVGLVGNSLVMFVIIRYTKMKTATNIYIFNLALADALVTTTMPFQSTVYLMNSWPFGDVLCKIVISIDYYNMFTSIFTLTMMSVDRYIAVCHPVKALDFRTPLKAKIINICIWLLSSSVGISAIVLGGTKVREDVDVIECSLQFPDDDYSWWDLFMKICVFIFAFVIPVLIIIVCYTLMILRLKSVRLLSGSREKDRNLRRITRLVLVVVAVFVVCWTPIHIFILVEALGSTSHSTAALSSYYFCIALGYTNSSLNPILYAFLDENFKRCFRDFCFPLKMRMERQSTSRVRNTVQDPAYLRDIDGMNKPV

[2] = molecular target: T1, Human opiate κ receptors; assay type: binding; parameters: expressed in transfected cells; host or cells: HEK-293 cell membranes

SMILES: O=C(Cc1ccc(F)c(F)c1)N1CCN(S(=O)(=O)Cc2ccon2)[C@H]2CCC[C@H](N3CC[C@H](O)C3)[C@H]21 [Example 149]
- % activation functional assay at 1 μM [1]: 97%
- EC50 ([1]; read-out: GTPγS EC50): < 10 nM
- % binding at 100 nM [2]: 81%

SMILES: Cl.NCC(=O)N1CCN(C(=O)Cc2ccc(Cl)c(Cl)c2)[C@@H]2[C@@H](N3CCCC3)CCC[C@@H]21 (racemic) [Example 44]
- % binding at 100 nM [2]: 41%

SMILES: Cl.O=C(Cc1ccc(Cl)c(Cl)c1)N1CCN(S(=O)(=O)c2cn[nH]c2)C2CCCC(N3CCC(O)C3)C21 (stereo not shown) [Example 128]
- % activation functional assay at 1 μM [1]: 95%
- EC50 ([1]; read-out: GTPγS EC50): < 10 nM
- % binding at 100 nM [2]: 92%

SMILES: CC(C)OC(=O)C(=O)N1CCN(C(=O)Cc2ccc(Cl)c(Cl)c2)[C@@H]2[C@@H](N3CCCC3)CCC[C@@H]21.Cl [Example 123]
- % activation functional assay at 1 μM [1]: 99%
- EC50 ([1]; read-out: GTPγS EC50): < 10 nM
- % binding at 100 nM [2]: 68%

SMILES: COC(=O)N1CCN(C(=O)Cc2ccc(F)c(Cl)c2)[C@@H]2[C@@H](N3CC[C@H](F)C3)CCC[C@@H]21 [Example 150]
- % activation functional assay at 1 μM [1]: 92%
- EC50 ([1]; read-out: GTPγS EC50): < 10 nM
- % binding at 100 nM [2]: 97%

SMILES: O=C(Cc1ccc(Cl)c(F)c1)N1CCN(S(=O)(=O)Cc2ccon2)[C@H]2CCC[C@H](N3CC[C@H](O)C3)[C@H]21 [Example 147]
- % activation functional assay at 1 μM [1]: 105%
- EC50 ([1]; read-out: GTPγS EC50): < 10 nM
- % binding at 100 nM [2]: 88%

SMILES: Cl.O=C(Cc1ccc(Cl)c(Cl)c1)N1CCN(S(=O)(=O)N2CCCC2)C2CCCC(N3CCC(O)C3)C21 (stereo not shown) [Example 127]
- % activation functional assay at 1 μM [1]: 100%
- EC50 ([1]; read-out: GTPγS EC50): 10 to 100 nM
- % binding at 100 nM [2]: 66%

SMILES: COC(=O)N1CCN(C(=O)Cc2ccc(Cl)c(Cl)c2)C2C(N3CCC(C(N)=O)C3)CCCC21.Cl (mixture of isomers) [Example 84]
- % activation functional assay at 1 μM [1]: 99%
- EC50 ([1]; read-out: GTPγS EC50): 10 to 100 nM
- % binding at 100 nM [2]: 89%

SMILES: O=C(Cc1ccc(Cl)c(Cl)c1)N1CCN(S(=O)(=O)Cc2ccon2)[C@H]2CCC[C@H](N3CC[C@H](O)C3)[C@H]21 [Example 136]
- % activation functional assay at 1 μM [1]: 108%
- EC50 ([1]; read-out: GTPγS EC50): < 10 nM
- % binding at 100 nM [2]: 96%

SMILES: COC(=O)N1CCN(C(=O)Cc2ccc([N+](=O)[O-])cc2)[C@@H]2[C@@H](N3CCCC3)CCC[C@@H]21.Cl (racemic) [Example 4]
- % binding at 100 nM [2]: 43%

SMILES: CN(C)S(=O)(=O)N1CCN(C(=O)Cc2ccc(Cl)c(Cl)c2)C2C(N3CCC(O)C3)CCCC21.Cl (stereo not shown) [Example 129]
- % activation functional assay at 1 μM [1]: 104%
- EC50 ([1]; read-out: GTPγS EC50): < 10 nM
- % binding at 100 nM [2]: 80%

SMILES: CNS(=O)(=O)N1CCN(C(=O)Cc2ccc(Cl)c(Cl)c2)C2C(N3CCC(O)C3)CCCC21.Cl (stereo not shown) [Example 131]
- % activation functional assay at 1 μM [1]: 104%
- EC50 ([1]; read-out: GTPγS EC50): < 10 nM
- % binding at 100 nM [2]: 78%

SMILES: CCCNS(=O)(=O)N1CCN(C(=O)Cc2ccc(Cl)c(Cl)c2)C2C(N3CCC(O)C3)CCCC21.Cl (stereo not shown) [Example 133]
- % activation functional assay at 1 μM [1]: 105%
- EC50 ([1]; read-out: GTPγS EC50): < 10 nM
- % binding at 100 nM [2]: 74%

SMILES: Cl.O=C(Cc1ccc(Cl)c(Cl)c1)N1CCN(S(=O)(=O)NCCO)C2CCCC(N3CCC(O)C3)C21 (stereo not shown) [Example 130]
- % activation functional assay at 1 μM [1]: 102%
- EC50 ([1]; read-out: GTPγS EC50): 10 to 100 nM
- % binding at 100 nM [2]: 70%

SMILES: O=C(Cc1ccc(Cl)c(Cl)c1)N1CCN(S(=O)(=O)N2CCOCC2)[C@H]2CCC[C@H](N3CC[C@H](O)C3)[C@H]21 [Example 137]
- % activation functional assay at 1 μM [1]: 101%
- EC50 ([1]; read-out: GTPγS EC50): < 10 nM
- % binding at 100 nM [2]: 71%

SMILES: COC(=O)N1CCN(C(=O)Cc2ccc(Cl)c(Cl)c2)[C@@H]2[C@@H](N(C)C)CCC[C@@H]21.Cl (racemic) [Example 17]
- % activation functional assay at 1 μM [1]: 92%
- EC50 ([1]; read-out: GTPγS EC50): < 10 nM
- % binding at 100 nM [2]: 92%
- % binding at 1 μM [2]: 97%

SMILES: COC(=O)N1CCN(C(=O)Cc2cc(F)cc(F)c2)[C@@H]2[C@@H](N3CCCC3)CCC[C@@H]21.Cl (racemic) [Example 2]
- % binding at 100 nM [2]: 41%

SMILES: O=C(Cc1ccc(F)c(Cl)c1)N1CCN(S(=O)(=O)Cc2ccon2)[C@H]2CCC[C@H](N3CC[C@H](O)C3)[C@H]21 [Example 148]
- % activation functional assay at 1 μM [1]: 93%
- EC50 ([1]; read-out: GTPγS EC50): < 10 nM
- % binding at 100 nM [2]: 92%

SMILES: O=C(Cc1ccc(Cl)cc1)N1CCN(S(=O)(=O)Cc2ccon2)[C@H]2CCC[C@H](N3CC[C@H](O)C3)[C@H]21 [Example 146]
- % activation functional assay at 1 μM [1]: 103%
- EC50 ([1]; read-out: GTPγS EC50): < 10 nM
- % binding at 100 nM [2]: 76%

SMILES: CCOC(=O)COC(=O)N1CCN(C(=O)Cc2ccc(Cl)c(Cl)c2)C2C(N3CCCC3)CCCC21.Cl (stereo not shown) [Example 111]
- % activation functional assay at 1 μM [1]: 105%
- EC50 ([1]; read-out: GTPγS EC50): < 10 nM
- % binding at 100 nM [2]: 105%

SMILES: COC(=O)N1CCN(C(=O)Cc2c[nH]c3ccccc23)[C@@H]2[C@@H](N3CCCC3)CCC[C@@H]21.Cl (racemic) [Example 9]
- % binding at 100 nM [2]: 43%

SMILES: COC(=O)N1CCN(C(=O)Cc2ccc(OC)c(F)c2)C2C(N3CCCC3)CCCC21 (racemic) [Example 22]
- activation at 1 µM [1]: 78%
- EC50 ([1]; GTPγS EC50 (nM)): 100 to 1000 nM

SMILES: CCNS(=O)(=O)N1CCN(C(=O)Cc2ccc(Cl)c(Cl)c2)C2C(N3CCC(O)C3)CCCC21.Cl (stereo not shown) [Example 132]
- % activation functional assay at 1 μM [1]: 106%
- EC50 ([1]; read-out: GTPγS EC50): < 10 nM
- % binding at 100 nM [2]: 71%

SMILES: O=C(c1cccs1)N1CCN(C(=O)Cc2ccc(Cl)c(Cl)c2)C2C(N3CCCC3)CCCC21 (racemic) [Example 30]
- activation at 1 µM [1]: 110%

SMILES: COC(=O)N1CCN(C(=O)Cc2ccc(Cl)c(Cl)c2)[C@H]2[C@H]1CCC[C@@H]2N1CCCC1 (single isomer, unassigned) [Reference compound D, reference compound]
- activation at 1 µM [1]: 92%

SMILES: CC(C)NC(=O)N1CCN(C(=O)Cc2ccc(Cl)c(F)c2)C2C(N3CCC(O)C3)CCCC21.Cl (stereo not shown) [Example 119]
- % activation functional assay at 1 μM [1]: 102%
- EC50 ([1]; read-out: GTPγS EC50): 10 to 100 nM

SMILES: COC(=O)N1CCN(C(=O)Cc2ccc(C(F)(F)F)cc2)C2C1CCCC2N(C)C(C)C (racemic) [Example 14]
- activation at 1 µM [1]: 104%
- EC50 ([1]; GTPγS EC50 (nM)): < 10 nM

SMILES: COC(=O)N1CCN(C(=O)Cc2ccc(Cl)c(Cl)c2)C2C1CCCC2N(C)C(C)C (racemic) [Example 13]
- activation at 1 µM [1]: 98%
- EC50 ([1]; GTPγS EC50 (nM)): < 10 nM

SMILES: CCCCN1CCN(C(=O)Cc2ccc(Cl)c(Cl)c2)C2C(N3CCCC3)CCCC21 (stereo not shown) [W, reference compound]
- activation (% of control) at 1 μM [1]: 113 % of control
- EC50 ([1]; read-out: EC50 (nM) [35S]GTPγS binding): 12 nM

SMILES: COC(=O)N1CCN(C(=O)Cc2ccc(C(F)(F)F)c(Cl)c2)C2C(N3CCCC3)CCCC21 (racemic) [Example 50]
- activation at 1 µM [1]: 118%
- EC50 ([1]; GTPγS EC50 (nM)): < 10 nM

SMILES: CC(C)NC(=O)N1CCN(C(=O)Cc2ccc(Cl)c(Cl)c2)C2C(N3CCC(O)C3)CCCC21.Cl (stereo not shown) [Example 120]
- % activation functional assay at 1 μM [1]: 100%
- EC50 ([1]; read-out: GTPγS EC50): < 10 nM

SMILES: O=C(C=Cc1ccoc1)N1CCN(C(=O)Cc2ccc(Cl)c(Cl)c2)C2C(N3CCCC3)CCCC21 (racemic) [Example 79]
- activation at 1 µM [1]: 102%

SMILES: Cl.O=C(Cc1ccc(Cl)c(Cl)c1)N1CCN(C(=O)NCc2ccccc2)[C@H]2CCC[C@H](N3CCCC3)[C@H]21 (racemic) [Example 41]
- % activation functional assay at 1 μM [1]: 81%
- EC50 ([1]; read-out: GTPγS EC50): < 10 nM
- % binding at 100 nM [2]: 92%

SMILES: COC(=O)N1CCN(C(=O)Cc2ccc(Cl)c(Cl)c2)[C@@H]2[C@@H](N3CC[C@@H](O)C3)CCC[C@@H]21 [Example 96]
- activation at 1 µM [1]: 109%
- EC50 ([1]; GTPγS EC50 (nM)): < 10 nM

SMILES: O=C(Cc1ccc(Cl)c(Cl)c1)N1CCN(S(=O)(=O)NC2CCCC2)[C@H]2CCC[C@H](N3CC[C@H](O)C3)[C@H]21 [Example 135]
- % activation functional assay at 1 μM [1]: 105%
- EC50 ([1]; read-out: GTPγS EC50): < 10 nM
- % binding at 100 nM [2]: 76%

SMILES: CC(C)NS(=O)(=O)N1CCN(C(=O)Cc2ccc(Cl)c(Cl)c2)[C@@H]2[C@@H](N3CC[C@H](O)C3)CCC[C@@H]21 [Example 134]
- % activation functional assay at 1 μM [1]: 102%
- EC50 ([1]; read-out: GTPγS EC50): < 10 nM
- % binding at 100 nM [2]: 67%

SMILES: COC(=O)N1CCN(C(=O)Cc2ccc(F)c(Cl)c2)[C@@H]2[C@@H](N3CC[C@H](O)C3)CCC[C@@H]21 [Example 109]
- activation at 1 µM [1]: 110%
- EC50 ([1]; GTPγS EC50 (nM)): < 10 nM

SMILES: O=C(CO)N1CCN(C(=O)Cc2ccc(Cl)c(Cl)c2)C2C(N3CCCC3)CCCC21 (racemic) [Example 59]
- activation at 1 µM [1]: 109%
- EC50 ([1]; GTPγS EC50 (nM)): 10 to 100 nM

SMILES: O=C(c1ccccn1)N1CCN(C(=O)Cc2ccc(Cl)c(Cl)c2)C2C(N3CCCC3)CCCC21 (racemic) [Example 32]
- activation at 1 µM [1]: 88%

SMILES: CN(C)S(=O)(=O)N1CCN(C(=O)Cc2ccc(Cl)c(Cl)c2)[C@@H]2[C@@H](N3CCCC3)CCC[C@@H]21 [Example 98]
- activation at 1 µM [1]: 105%
- EC50 ([1]; GTPγS EC50 (nM)): < 10 nM
